Like-named read-outs stand apart in the source and are kept apart here.

We go through 17 compounds from article PMC6597265 (ACS chemical neuroscience, 2019).

One assay addresses native KA receptors. The assay can be described thus: Binding affinity at native KA receptors, [3H]-KA, rat cortical synaptosomes. The settings on record: native iGluRs; for IC50 KA: mean of at least three experiments.
The next assay deals with human EAAT1 (Homo sapiens, UniProt P43003). The assay can be described thus: [3H]-D-Asp uptake assay, EAAT1 stably expressed in HEK293 cells. The assay is classed as cell-based.
human EAAT1, sequence (P43003 whole entry): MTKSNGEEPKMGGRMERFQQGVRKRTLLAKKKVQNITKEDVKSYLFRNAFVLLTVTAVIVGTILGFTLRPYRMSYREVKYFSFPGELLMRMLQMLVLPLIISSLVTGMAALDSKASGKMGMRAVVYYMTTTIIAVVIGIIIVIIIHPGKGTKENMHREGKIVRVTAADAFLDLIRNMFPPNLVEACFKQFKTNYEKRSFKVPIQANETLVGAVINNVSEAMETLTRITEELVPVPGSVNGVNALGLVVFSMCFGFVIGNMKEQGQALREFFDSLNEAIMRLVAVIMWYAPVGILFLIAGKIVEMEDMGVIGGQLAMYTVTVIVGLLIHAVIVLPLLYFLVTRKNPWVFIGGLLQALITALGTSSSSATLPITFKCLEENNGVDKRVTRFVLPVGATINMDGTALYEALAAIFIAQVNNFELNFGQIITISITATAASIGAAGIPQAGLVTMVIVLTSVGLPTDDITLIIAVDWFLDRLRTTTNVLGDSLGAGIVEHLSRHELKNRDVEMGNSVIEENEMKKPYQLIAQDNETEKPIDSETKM
For the next assay, the target named is T1, human EAAT3 (Homo sapiens, UniProt P43005).
T1 sequence (P43005 1-524): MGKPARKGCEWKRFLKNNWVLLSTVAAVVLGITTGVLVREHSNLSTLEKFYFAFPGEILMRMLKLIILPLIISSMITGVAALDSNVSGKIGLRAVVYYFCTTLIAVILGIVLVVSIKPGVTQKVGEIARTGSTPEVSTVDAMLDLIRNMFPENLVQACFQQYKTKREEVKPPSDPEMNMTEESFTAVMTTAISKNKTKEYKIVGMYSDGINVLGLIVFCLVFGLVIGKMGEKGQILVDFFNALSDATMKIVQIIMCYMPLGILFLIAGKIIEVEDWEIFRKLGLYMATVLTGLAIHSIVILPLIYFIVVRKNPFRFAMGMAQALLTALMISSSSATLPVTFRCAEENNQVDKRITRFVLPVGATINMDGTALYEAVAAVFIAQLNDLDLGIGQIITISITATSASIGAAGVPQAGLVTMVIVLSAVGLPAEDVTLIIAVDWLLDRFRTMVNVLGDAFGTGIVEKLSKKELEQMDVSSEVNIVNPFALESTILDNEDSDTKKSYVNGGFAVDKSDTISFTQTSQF
Nature of the assay: [3H]-D-Asp uptake assay, EAAT3 stably expressed in HEK293 cells. The assay is classed as cell-based.

The target of assay [1] is recombinant rat homomeric GluK1 (Rattus norvegicus, UniProt P22756). The assay can be described thus: Binding affinity at cloned homomeric GluK1 expressed in sf9 cells, [3H]-NF608.
recombinant rat homomeric GluK1, sequence (P22756 31-949): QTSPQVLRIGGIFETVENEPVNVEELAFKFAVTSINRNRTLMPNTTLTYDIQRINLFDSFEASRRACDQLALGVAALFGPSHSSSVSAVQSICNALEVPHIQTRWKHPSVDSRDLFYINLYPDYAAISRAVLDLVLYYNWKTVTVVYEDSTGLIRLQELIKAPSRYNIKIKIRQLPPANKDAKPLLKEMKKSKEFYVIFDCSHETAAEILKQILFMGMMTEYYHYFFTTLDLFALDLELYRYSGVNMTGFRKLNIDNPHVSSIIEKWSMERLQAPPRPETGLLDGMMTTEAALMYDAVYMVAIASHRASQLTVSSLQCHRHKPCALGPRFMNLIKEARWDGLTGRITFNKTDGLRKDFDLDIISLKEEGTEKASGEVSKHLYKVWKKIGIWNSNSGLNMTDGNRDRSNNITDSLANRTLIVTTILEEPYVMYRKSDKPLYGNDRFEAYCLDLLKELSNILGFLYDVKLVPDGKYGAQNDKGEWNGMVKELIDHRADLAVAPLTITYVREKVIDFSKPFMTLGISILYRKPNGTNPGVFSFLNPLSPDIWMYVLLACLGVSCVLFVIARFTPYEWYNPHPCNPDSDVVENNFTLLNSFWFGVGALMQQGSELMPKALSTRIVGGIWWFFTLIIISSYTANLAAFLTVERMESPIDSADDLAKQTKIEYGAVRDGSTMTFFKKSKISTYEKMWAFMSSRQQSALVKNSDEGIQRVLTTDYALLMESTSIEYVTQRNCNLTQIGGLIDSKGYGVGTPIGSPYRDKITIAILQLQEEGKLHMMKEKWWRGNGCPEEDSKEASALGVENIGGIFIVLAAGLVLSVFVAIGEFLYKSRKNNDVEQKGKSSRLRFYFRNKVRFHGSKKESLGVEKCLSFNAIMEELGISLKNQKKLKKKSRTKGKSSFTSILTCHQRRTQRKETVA
The target of a further assay is human EAAT2 (Homo sapiens, UniProt P43004). Nature of the assay: [3H]-D-Asp uptake assay, EAAT2 stably expressed in HEK293 cells. The assay is classed as cell-based.
human EAAT2, sequence (P43004 whole entry): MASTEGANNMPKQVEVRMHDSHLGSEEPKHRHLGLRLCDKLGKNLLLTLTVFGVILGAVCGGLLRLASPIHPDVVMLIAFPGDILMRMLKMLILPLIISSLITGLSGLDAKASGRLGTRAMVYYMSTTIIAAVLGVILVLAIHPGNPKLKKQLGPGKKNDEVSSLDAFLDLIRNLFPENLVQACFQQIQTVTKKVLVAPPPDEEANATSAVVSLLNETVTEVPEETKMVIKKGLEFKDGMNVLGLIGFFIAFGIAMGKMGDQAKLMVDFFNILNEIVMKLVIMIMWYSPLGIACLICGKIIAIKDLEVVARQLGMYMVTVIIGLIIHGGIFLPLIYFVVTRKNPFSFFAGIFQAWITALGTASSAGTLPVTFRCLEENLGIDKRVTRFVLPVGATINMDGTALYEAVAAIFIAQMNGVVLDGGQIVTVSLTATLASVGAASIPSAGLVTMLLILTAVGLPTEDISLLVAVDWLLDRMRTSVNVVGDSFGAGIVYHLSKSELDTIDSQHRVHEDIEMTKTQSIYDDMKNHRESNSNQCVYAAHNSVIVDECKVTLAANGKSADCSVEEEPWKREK
Assay [2] addresses recombinant rat homomeric GluK3 (Rattus norvegicus, UniProt P42264). Nature of the assay: Binding affinity at cloned homomeric GluK3 expressed in sf9 cells, [3H]-KA. The settings on record: for GluK1/K3 (GluK1/GluK3 Ki selectivity ratio): ratio of Ki values at cloned homomeric receptors.
Assay [3] concerns the target recombinant rat homomeric GluK2 (Rattus norvegicus, UniProt P42260). Nature of the assay: Binding affinity at cloned homomeric GluK2 expressed in sf9 cells, [3H]-KA.
Another assay deals with native NMDA receptors. Type of assay: binding. The settings on record: native iGluRs, rat synaptosomes.
Setting [4] is: Ki GluK3, cloned homomeric receptor, mean ± SEM, at least three experiments.
Where [5] appears, read: IC50 EAAT1, HEK293 cells, [3H]-D-Asp uptake.

recombinant rat homomeric GluK2, sequence (P42260 32-908): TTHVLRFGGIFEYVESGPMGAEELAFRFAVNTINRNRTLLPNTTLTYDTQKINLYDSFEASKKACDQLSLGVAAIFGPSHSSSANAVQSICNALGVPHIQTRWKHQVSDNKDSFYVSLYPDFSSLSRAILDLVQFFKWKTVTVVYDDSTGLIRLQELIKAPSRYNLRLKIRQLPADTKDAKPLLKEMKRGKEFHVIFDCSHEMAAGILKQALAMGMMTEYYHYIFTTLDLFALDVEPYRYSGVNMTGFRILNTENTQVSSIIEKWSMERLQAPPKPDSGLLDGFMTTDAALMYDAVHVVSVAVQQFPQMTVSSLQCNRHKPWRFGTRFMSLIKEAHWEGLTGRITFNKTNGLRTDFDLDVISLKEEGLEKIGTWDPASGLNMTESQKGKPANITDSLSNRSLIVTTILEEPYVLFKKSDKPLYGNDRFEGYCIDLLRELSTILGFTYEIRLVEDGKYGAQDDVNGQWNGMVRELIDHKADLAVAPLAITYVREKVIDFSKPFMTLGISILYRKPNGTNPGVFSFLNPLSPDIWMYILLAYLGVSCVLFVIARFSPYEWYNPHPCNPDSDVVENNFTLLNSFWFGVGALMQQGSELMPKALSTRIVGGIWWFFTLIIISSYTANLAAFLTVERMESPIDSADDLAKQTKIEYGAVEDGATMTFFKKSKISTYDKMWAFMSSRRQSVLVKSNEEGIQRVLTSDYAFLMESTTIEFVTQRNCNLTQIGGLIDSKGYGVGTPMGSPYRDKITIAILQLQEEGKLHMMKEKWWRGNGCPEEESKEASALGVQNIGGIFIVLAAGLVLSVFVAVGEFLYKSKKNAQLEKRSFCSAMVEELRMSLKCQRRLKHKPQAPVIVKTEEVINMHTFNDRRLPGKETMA
recombinant rat homomeric GluK3, sequence (P42264 32-919): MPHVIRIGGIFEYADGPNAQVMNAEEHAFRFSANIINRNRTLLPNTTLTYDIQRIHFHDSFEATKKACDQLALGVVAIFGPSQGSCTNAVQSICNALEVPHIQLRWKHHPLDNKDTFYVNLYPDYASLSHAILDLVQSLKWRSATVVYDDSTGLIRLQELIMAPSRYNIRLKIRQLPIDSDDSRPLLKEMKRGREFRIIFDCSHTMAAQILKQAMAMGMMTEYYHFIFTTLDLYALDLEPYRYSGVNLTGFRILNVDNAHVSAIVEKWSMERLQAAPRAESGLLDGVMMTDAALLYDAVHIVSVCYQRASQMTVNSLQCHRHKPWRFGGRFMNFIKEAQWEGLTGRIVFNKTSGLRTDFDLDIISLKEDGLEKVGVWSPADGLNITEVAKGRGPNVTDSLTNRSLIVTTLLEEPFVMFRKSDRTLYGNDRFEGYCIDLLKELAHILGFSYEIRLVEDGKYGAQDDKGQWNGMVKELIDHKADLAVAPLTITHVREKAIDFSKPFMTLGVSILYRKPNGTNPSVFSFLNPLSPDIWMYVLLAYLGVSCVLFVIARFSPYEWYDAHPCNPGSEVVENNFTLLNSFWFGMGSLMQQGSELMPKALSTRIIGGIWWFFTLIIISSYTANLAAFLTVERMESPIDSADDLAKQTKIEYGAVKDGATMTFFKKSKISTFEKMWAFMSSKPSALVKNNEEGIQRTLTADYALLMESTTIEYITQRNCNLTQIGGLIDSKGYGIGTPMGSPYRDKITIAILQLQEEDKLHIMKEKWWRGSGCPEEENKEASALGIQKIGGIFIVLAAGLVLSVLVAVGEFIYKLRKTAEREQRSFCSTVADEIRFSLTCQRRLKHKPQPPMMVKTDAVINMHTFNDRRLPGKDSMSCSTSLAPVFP

Consider `Cl.O=C(O)C(Cc1c[nH]nn1)[C@@H]1CCN[C@H]1C(=O)O` (stereo partly drawn) [3p-d1, trans-3-(1-Carboxy-2-(1H-1,2,3-triazol-4-yl)ethyl)pyrrolidine-2-carboxylic Acid Hydrochloride], for which, on native KA receptors, the “IC50 KA” value was greater than 100 µM. Also, the IC50 against human EAAT1 (IC50 EAAT1), against human EAAT3 and against human EAAT2 was greater than 300 µM in each case. Also, the Ki is roughly 100 µM in assay [1], 6.6 ± 0.09 µM in assay [2] (setting [4]) and greater than 100 µM in assay [3] (Ki GluK2).

For `CC[C@@H](C(=O)O)[C@H]1CCN[C@@H]1C(=O)O.Cl` [3c-s2, (2S,3R)-3-((R)-1-Carboxypropyl)pyrrolidine-2-carboxylic Acid Hydrochloride], the “IC50 KA” value at native KA receptors is greater than 100 µM. Also, the IC50 on human EAAT1, on human EAAT3 and against human EAAT2 was greater than 300 µM in each case. For the same compound, the Ki in assay [1] came to 41 ± 14 µM; in assay [2], 6.3 ± 1.3 µM; in assay [3], 70 ± 14 µM. Moreover, the “GluK1/K3 (GluK1/GluK3 Ki selectivity ratio)” value in assay [2] is given as 7.

For `CC(C)C(C(=O)O)[C@@H]1CCN[C@H]1C(=O)O.Cl` (relative stereo) [3f, trans-3-(1-Carboxy-2-methylpropyl)pyrrolidine-2-carboxylic Acid Hydrochloride], the “IC50 KA” value at native KA receptors is greater than 100 µM. For the same compound, the half-maximal inhibitory concentration (IC50) against human EAAT1 (IC50 EAAT1) was 45 µM; against human EAAT1 (pIC50 EAAT1 (mean ± SEM, in brackets)), 45.7 µM; at human EAAT3, 35.5 µM; on human EAAT2, 15.8 µM. Moreover, the Ki in assay [1], in assay [2] (setting [4]) and in assay [3] (Ki GluK2) was greater than 100 µM in each case.

For `Cl.O=C(O)C(CCCO)[C@@H]1CCN[C@H]1C(=O)O` (relative stereo) [3o, trans-3-(1-Carboxy-4-hydroxybutyl)pyrrolidine-2-carboxylic Acid Hydrochloride], the “IC50 KA” value on native KA receptors is greater than 100 µM. In addition, the IC50 at human EAAT1 (IC50 EAAT1), against human EAAT3 and against human EAAT2 was greater than 300 µM in each case. The inhibition constant (Ki) in assay [1], in assay [2] (setting [4]) and in assay [3] (Ki GluK2) was greater than 100 µM throughout.

As to `Cc1onc(O)c1CC(N)C(=O)O` (stereo not drawn) [AMPA, α-amino-3-hydroxy-5-methyl-4-isoxazolepropionic acid, reference compound], in assay [2], the GluK1/GluK3 was 0.03 and the GluK2/GluK3 is reported as greater than 23.

In the case of `Cl.O=C(O)C(Cc1c[nH]nn1)[C@@H]1CCN[C@H]1C(=O)O` (mixture of isomers) [3p, trans-3-(1-Carboxy-2-(1H-1,2,3-triazol-4-yl)ethyl)pyrrolidine-2-carboxylic Acid Hydrochloride], on native KA receptors, the “pIC50 KA (mean ± SEM, in brackets)” value is listed as 4.23 ± 0.03. Further, on native KA receptors, the “IC50 KA” value was determined as 59 µM. Besides, the IC50 on human EAAT1 (IC50 EAAT1), against human EAAT3 and against human EAAT2 was greater than 300 µM in each case. For the same compound, the Ki in assay [1] was 14 ± 2 µM; in assay [2] (setting [4]), 3.1 ± 0.14 µM; in assay [3] (Ki GluK2) it was 55 ± 9 µM. Moreover, the “GluK1/K3 (GluK1/GluK3 Ki selectivity ratio)” value in assay [2] is 5.

Consider `Cl.O=C(O)C(Cc1ccccc1)[C@@H]1CCN[C@H]1C(=O)O` (relative stereo) [3g, trans-3-(1-Carboxy-2-phenylethyl)pyrrolidine-2-carboxylic Acid Hydrochloride], for which the “pIC50 KA (mean ± SEM, in brackets)” value at native KA receptors stood at 4.15 ± 0.04. In addition, on native KA receptors, the “IC50 KA” value came to 71 µM. Besides, the IC50 against human EAAT1 (setting [5]) was 34 µM; on human EAAT1 (pIC50 EAAT1 (mean ± SEM, in brackets), HEK293 cells, [3H]-D-Asp uptake), 34.7 µM; against human EAAT2, 20 µM. For the same compound, the “selectivity for EAAT1 and EAAT2 over EAAT3” value on human EAAT1 (from IC50 values) was determined as 10 fold. Besides, the Ki in assay [1] was found to be 46 ± 2.2 µM; in assay [2] (setting [4]), 5.4 ± 0.42 µM; in assay [3] (Ki GluK2) it was 67 ± 4.6 µM. Besides, the “GluK1/K3 (GluK1/GluK3 Ki selectivity ratio)” value in assay [2] was found to be 9.

Turning to `CCCC(C(=O)O)[C@@H]1CCN[C@H]1C(=O)O.Cl` (relative stereo) [3e, trans-3-(1-Carboxybutyl)pyrrolidine-2-carboxylic Acid Hydrochloride], the “IC50 KA” value at native KA receptors was greater than 100 µM.

With `Cl.O=C(O)CCC(C(=O)O)[C@@H]1CCN[C@H]1C(=O)O` (relative stereo) [3m, trans-2-(2-Carboxypyrrolidin-3-yl)pentanedioic Acid Hydrochloride], at native KA receptors, the “IC50 KA” value is greater than 100 µM. The IC50 on human EAAT1 (IC50 EAAT1), at human EAAT3 and at human EAAT2 was greater than 300 µM in each case. Also, the “pKi NMDA (mean ± SEM, in brackets)” value at native NMDA receptors is on record as 4.28 ± 0.01. In addition, the inhibition constant (Ki) in assay [1], in assay [2] (setting [4]) and in assay [3] (Ki GluK2) was greater than 100 µM in each case.

For the compound `CC[C@H](C(=O)O)[C@H]1CCN[C@@H]1C(=O)O.Cl` [3c-s1, (2S,3R)-3-((S)-1-Carboxypropyl)pyrrolidine-2-carboxylic Acid Hydrochloride], the “IC50 KA” value on native KA receptors is greater than 100 µM. Besides, the IC50 against human EAAT1 is roughly 100 µM; at human EAAT3, roughly 50 µM; on human EAAT2, roughly 30 µM. Besides, the “pKi NMDA (mean ± SEM, in brackets)” value at native NMDA receptors is listed as 4.88 ± 0.02. Further, the values for the Ki in assay [1], in assay [2] and in assay [3] were 18 ± 3.8 µM, 11 ± 2.4 µM and greater than 100 µM, respectively. The “GluK1/K3 (GluK1/GluK3 Ki selectivity ratio)” value in assay [2] came to 2.

For the compound `Cl.O=C(O)[C@H]1NCC[C@@H]1[C@H](C(=O)O)c1ccccc1` [3d-s2, (2S,3R)-3-((S)-Carboxy(phenyl)methyl)pyrrolidine-2-carboxylic Acid Hydrochloride], the “IC50 KA” value at native KA receptors is greater than 100 µM. Besides, the half-inhibitory concentration (IC50) at human EAAT1 (IC50 EAAT1), at human EAAT3 and against human EAAT2 was greater than 300 µM each time. Besides, the Ki in assay [1], in assay [2] (Ki GluK3) and in assay [3] (Ki GluK2) was greater than 100 µM throughout.

As to `Cl.O=C(O)C(CCc1ccccc1)[C@@H]1CCN[C@H]1C(=O)O` (relative stereo) [3h, trans-3-(1-Carboxy-3-phenylpropyl)pyrrolidine-2-carboxylic Acid Hydrochloride], the “IC50 KA” value on native KA receptors was greater than 100 µM. In addition, the IC50 on human EAAT1 (IC50 EAAT1), against human EAAT3 and on human EAAT2 was greater than 300 µM in each case. Further, the Ki is greater than 100 µM in assay [1], 86 ± 7.3 µM in assay [2] (setting [4]) and greater than 100 µM in assay [3] (Ki GluK2).

As to `O=C([O-])C(CCO)[C@@H]1CCN[C@H]1C(=O)[O-].[Na+].[Na+]` (relative stereo) [3n, Disodium trans-3-(1-Carboxylato-3-hydroxypropyl)pyrrolidine-2-carboxylate], the IC50 against human EAAT1 (setting [5]), against human EAAT3 and against human EAAT2 was greater than 300 µM throughout. Besides, the “pKi NMDA (mean ± SEM, in brackets)” value on native NMDA receptors is recorded as 4.23 ± 0.06. In addition, the inhibition constant Ki in assay [1] is greater than 100 µM; in assay [2] (setting [4]), 52 ± 3 µM; in assay [3] (Ki GluK2, cloned homomeric receptor, mean ± SEM, at least three experiments), greater than 100 µM. For the same compound, the “GluK1/K3 (GluK1/GluK3 Ki selectivity ratio)” value in assay [2] is recorded as greater than 2.

Turning to `Cl.O=C(O)CC(C(=O)O)[C@@H]1CCN[C@H]1C(=O)O` (relative stereo) [3l, trans-2-(2-Carboxypyrrolidin-3-yl)succinic Acid Hydrochloride], the “pIC50 KA (mean ± SEM, in brackets)” value at native KA receptors is listed as 4.63 ± 0.02. In addition, the “IC50 KA” value on native KA receptors is 23 µM. Further, the half-maximal inhibitory concentration (IC50) against human EAAT1 (IC50 EAAT1), against human EAAT3 and at human EAAT2 was greater than 1000 µM throughout. For the same compound, on native NMDA receptors, the “pKi NMDA (mean ± SEM, in brackets)” value came out at 5.58 ± 0.03. Further, the values for the Ki in assay [1], in assay [2] (setting [4]) and in assay [3] (Ki GluK2) were 2 ± 0.16 µM, 6.4 ± 1.2 µM and 33 ± 1.1 µM, respectively.

Take `Cl.O=C(O)[C@H]1NCC[C@@H]1[C@@H](C(=O)O)c1ccccc1` [3d-s1, (2S,3R)-3-((R)-Carboxy(phenyl)methyl)pyrrolidine-2-carboxylic Acid Hydrochloride]: on native KA receptors, the “IC50 KA” value was greater than 100 µM. The results for the IC50 at human EAAT1 (IC50 EAAT1), at human EAAT3 and against human EAAT2 were greater than 300 µM, greater than 300 µM and roughly 50 µM, respectively. Moreover, the inhibition constant (Ki) in assay [1], in assay [2] (Ki GluK3) and in assay [3] (Ki GluK2) was greater than 100 µM throughout.

On to `COC(C(=O)O)[C@@H]1CCN[C@H]1C(=O)O.Cl` (relative stereo) [3j-d1, trans-3-(Carboxy(methoxy)methyl)pyrrolidine-2-carboxylic Acid Hydrochloride], for which the “IC50 KA” value on native KA receptors was greater than 100 µM. In addition, the figures for the half-inhibitory concentration (IC50) against human EAAT1, against human EAAT3 and against human EAAT2 were greater than 1000 µM, greater than 1000 µM and roughly 300 µM, respectively. In addition, the Ki in assay [1] is greater than 100 µM; in assay [2], 82 ± 11.2 µM; in assay [3], greater than 100 µM.

In the case of `Cl.O=C(O)C(Cc1c[nH]nn1)[C@@H]1CCN[C@H]1C(=O)O` (stereo partly drawn) [3p-d2, trans-3-(1-Carboxy-2-(1H-1,2,3-triazol-4-yl)ethyl)pyrrolidine-2-carboxylic Acid Hydrochloride], on native KA receptors, the “pIC50 KA (mean ± SEM, in brackets)” value worked out at 4.24 ± 0.01 and the “IC50 KA” value is 58 µM. The “pKi NMDA (mean ± SEM, in brackets)” value on native NMDA receptors amounted to 4.30 ± 0.03. The Ki in assay [2] (setting [4]) amounted to 2.7 ± 0.32 µM. In addition, the Ki in assay [3] (Ki GluK2) came to 43 ± 5.2 µM.
